Results reported in patent US12723063B2, “GIPR-agonist compounds” (Eli Lilly and Company, priority 2019, dated 2026).
*1 amine or outer side, *2 acyl side, *3 side chain or, on linkers, in order; H or OH if unused. Where a SMILES comes first, the peptide text is derived from it. Side-chain parts run from the residue outwards. [ ]: non-standard residue; d: D form. The star is where a group is joined. C20 diacid = O=C(O)CCCCCCCCCCCCCCCCCCC(=O)*; γGlu = O=C(O)[C@H](CCC(=O)[*:2])N[*:1]; αMeF = C[C@](N)(Cc1ccccc1)C(=O)O; 4Pal = N[C@@H](Cc1ccncc1)C(=O)O; αMeL = CC(C)C[C@](C)(N)C(=O)O; AEEA = NCCOCCOCC(=O)O; Aib = CC(C)(N)C(=O)O

Target: T1, human GcgR (Homo sapiens, UniProt P47871)
T1 construct: expressed in transfected cells; crude membranes
T1 sequence (P47871 26-477): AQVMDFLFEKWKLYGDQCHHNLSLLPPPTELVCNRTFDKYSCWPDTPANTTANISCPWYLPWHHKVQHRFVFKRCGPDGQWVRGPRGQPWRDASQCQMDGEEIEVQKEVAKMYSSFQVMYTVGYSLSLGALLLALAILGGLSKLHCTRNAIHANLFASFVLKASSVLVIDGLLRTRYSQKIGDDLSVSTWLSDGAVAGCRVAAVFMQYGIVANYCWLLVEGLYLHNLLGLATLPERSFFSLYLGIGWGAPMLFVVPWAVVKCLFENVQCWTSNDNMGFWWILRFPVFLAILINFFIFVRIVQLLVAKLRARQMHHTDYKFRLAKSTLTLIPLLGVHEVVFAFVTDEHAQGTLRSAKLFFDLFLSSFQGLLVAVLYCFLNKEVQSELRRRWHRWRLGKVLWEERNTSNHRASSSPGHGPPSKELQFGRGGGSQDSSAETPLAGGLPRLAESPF
Assay: [125I]-Glucagon binding, SPA with WGA beads, 0.1% bacitracin
Conditions: geometric mean, read-out: hGcgR Ki
Method in brief: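 SPA competition binding with WGA beads on crude membranes from HEK293 cells stably expressing hGcgR. Buffer: 25 mM HEPES pH 7.4, 2.5 mM CaCl2, 1 mM MgCl2, 0.1% bacitracin, 0.003% Tween-20; 10-point 3-fold dilutions, NSB with 1 μM Gcg.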

With `CC[C@H](C)[C@H](NC(=O)[C@H](Cc1ccccc1)NC(=O)[C@@H](NC(=O)CNC(=O)[C@H](CCC(=O)O)NC(=O)C(C)(C)NC(=O)[C@@H](N)Cc1ccc(O)cc1)[C@@H](C)O)C(=O)N[C@@H](CO)C(=O)N[C@@H](CC(=O)O)C(=O)N[C@@H](Cc1ccc(O)cc1)C(=O)N[C@@H](CO)C(=O)N[C@H](C(=O)N[C@@](C)(CC(C)C)C(=O)N[C@@H](CC(C)C)C(=O)N[C@@H](CC(=O)O)C(=O)N[C@@H](CCCCN)C(=O)N[C@@H](CCCCNC(=O)COCCOCCNC(=O)COCCOCCNC(=O)CC[C@H](NC(=O)CCCCCCCCCCCCCCCCCCC(=O)O)C(=O)O)C(=O)N[C@@H](Cc1c[nH]cn1)C(=O)N[C@@H](CCC(N)=O)C(=O)NC(C)(C)C(=O)N[C@@H](CCC(=O)O)C(=O)N[C@@H](Cc1ccccc1)C(=O)N[C@H](C(=O)N[C@@H](CCC(=O)O)C(=O)N[C@@H](Cc1ccncc1)C(=O)N[C@@H](CC(C)C)C(=O)N[C@@H](CC(C)C)C(=O)N[C@@H](C)C(=O)N[C@H](C(=O)NCC(=O)N1CCC[C@H]1C(=O)N[C@@H](CO)C(=O)N[C@@H](CO)C(=O)NCC(=O)N[C@@H](C)C(=O)N1CCC[C@H]1C(=O)N1CCC[C@H]1C(=O)N1CCC[C@H]1C(=O)N[C@@H](CO)C(N)=O)[C@@H](C)O)C(C)C)[C@@H](C)CC` [Example 58] (H-Y[Aib]EGTFISDYSI[αMeL]LDKK([AEEA-AEEA-γGlu-C20 diacid])HQ[Aib]EFVE[4Pal]LLATGPSSGAPPPS-NH2) as the molecule, how does the Ki read?
Its Ki is 0.418 µM.

How did the Ki turn out when `CC[C@H](C)[C@H](NC(=O)[C@H](Cc1ccccc1)NC(=O)[C@@H](NC(=O)CNC(=O)[C@H](CCC(=O)O)NC(=O)C(C)(C)NC(=O)[C@@H](N)Cc1ccc(O)cc1)[C@@H](C)O)C(=O)N[C@@H](CO)C(=O)N[C@@H](CC(=O)O)C(=O)N[C@@H](Cc1ccc(O)cc1)C(=O)N[C@@H](CO)C(=O)N[C@H](C(=O)N[C@@](C)(CC(C)C)C(=O)N[C@@H](CC(C)C)C(=O)N[C@@H](CC(=O)O)C(=O)N[C@@H](CCCCN)C(=O)N[C@@H](CCCCNC(=O)COCCOCCNC(=O)COCCOCCNC(=O)CC[C@H](NC(=O)CCCCCCCCCCCCCCCCCCC(=O)O)C(=O)O)C(=O)N[C@@H](Cc1c[nH]cn1)C(=O)N[C@@H](CCC(N)=O)C(=O)NC(C)(C)C(=O)N[C@@H](CCC(=O)O)C(=O)N[C@@H](Cc1ccccc1)C(=O)N[C@H](C(=O)N[C@@H](CCC(=O)O)C(=O)N[C@@H](Cc1ccncc1)C(=O)N[C@@H](CC(C)C)C(=O)N[C@@H](CC(C)C)C(=O)N[C@@H](C)C(=O)N[C@@H](C)C(=O)NCC(=O)N1CCC[C@H]1C(=O)N[C@@H](CO)C(=O)N[C@@H](CO)C(=O)NCC(=O)N[C@@H](C)C(=O)N1CCC[C@H]1C(=O)N1CCC[C@H]1C(=O)N1CCC[C@H]1C(=O)N[C@@H](CO)C(N)=O)C(C)C)[C@@H](C)CC` [Example 59] was run?
The Ki was 0.23 µM.

For `CC[C@H](C)[C@H](NC(=O)[C@H](CO)NC(=O)[C@H](Cc1ccc(O)cc1)NC(=O)[C@H](CC(=O)O)NC(=O)[C@H](CO)NC(=O)[C@@H](NC(=O)[C@](C)(Cc1ccccc1)NC(=O)[C@@H](NC(=O)CNC(=O)[C@H](CCC(=O)O)NC(=O)C(C)(C)NC(=O)[C@@H](N)Cc1ccc(O)cc1)[C@@H](C)O)[C@@H](C)CC)C(=O)N[C@@](C)(CC(C)C)C(=O)N[C@@H](CC(C)C)C(=O)N[C@@H](CC(=O)O)C(=O)N[C@@H](CCCCN)C(=O)N[C@@H](CCCCNC(=O)COCCOCCNC(=O)COCCOCCNC(=O)CC[C@H](NC(=O)CCCCCCCCCCCCCCCCCCC(=O)O)C(=O)O)C(=O)N[C@@H](Cc1c[nH]cn1)C(=O)N[C@@H](CCC(N)=O)C(=O)NC(C)(C)C(=O)N[C@@H](CCC(=O)O)C(=O)N[C@@H](Cc1ccccc1)C(=O)N[C@H](C(=O)N[C@@H](CCC(=O)O)C(=O)N[C@@H](Cc1ccncc1)C(=O)N[C@@H](CC(C)C)C(=O)N[C@@H](CC(C)C)C(=O)N[C@@H](C)C(=O)N[C@@H](CCC(N)=O)C(=O)NCC(=O)N1CCC[C@H]1C(=O)N[C@@H](CO)C(=O)N[C@@H](CO)C(=O)NCC(=O)N[C@@H](C)C(=O)N1CCC[C@H]1C(=O)N1CCC[C@H]1C(=O)N1CCC[C@H]1C(=O)N[C@@H](CO)C(N)=O)C(C)C` [Example 60] (H-Y[Aib]EGT[αMeF]ISDYSI[αMeL]LDKK([AEEA-AEEA-γGlu-C20 diacid])HQ[Aib]EFVE[4Pal]LLAQGPSSGAPPPS-NH2), which Ki is on record?
Its Ki is 0.0262 µM.

For `CC[C@H](C)[C@H](NC(=O)[C@H](CO)NC(=O)[C@H](Cc1ccc(O)cc1)NC(=O)[C@H](CC(=O)O)NC(=O)[C@H](CO)NC(=O)[C@@H](NC(=O)[C@](C)(Cc1ccccc1)NC(=O)[C@@H](NC(=O)CNC(=O)[C@H](CCC(=O)O)NC(=O)C(C)(C)NC(=O)[C@@H](N)Cc1ccc(O)cc1)[C@@H](C)O)[C@@H](C)CC)C(=O)N[C@@](C)(CC(C)C)C(=O)N[C@@H](CC(C)C)C(=O)N[C@@H](CC(=O)O)C(=O)N[C@@H](CCCCN)C(=O)N[C@@H](CCCCNC(=O)COCCOCCNC(=O)COCCOCCNC(=O)CC[C@H](NC(=O)CCCCCCCCCCCCCCCCCCC(=O)O)C(=O)O)C(=O)N[C@@H](Cc1c[nH]cn1)C(=O)N[C@@H](CCC(N)=O)C(=O)NC(C)(C)C(=O)N[C@@H](CCC(=O)O)C(=O)N[C@@H](Cc1ccccc1)C(=O)N[C@H](C(=O)N[C@@H](CCC(=O)O)C(=O)N[C@@H](Cc1ccncc1)C(=O)N[C@@H](CC(C)C)C(=O)N[C@@H](CC(C)C)C(=O)N[C@@H](C)C(=O)N[C@H](C(=O)NCC(=O)N1CCC[C@H]1C(=O)N[C@@H](CO)C(=O)N[C@@H](CO)C(=O)NCC(=O)N[C@@H](C)C(=O)N1CCC[C@H]1C(=O)N1CCC[C@H]1C(=O)N1CCC[C@H]1C(=O)N[C@@H](CO)C(N)=O)[C@@H](C)O)C(C)C` [Example 61] (H-Y[Aib]EGT[αMeF]ISDYSI[αMeL]LDKK([AEEA-AEEA-γGlu-C20 diacid])HQ[Aib]EFVE[4Pal]LLATGPSSGAPPPS-NH2), which Ki is on record?
The Ki was 0.0804 µM.

Which Ki does the source give for `CC[C@H](C)[C@H](NC(=O)[C@H](CO)NC(=O)[C@H](Cc1ccc(O)cc1)NC(=O)[C@H](CC(=O)O)NC(=O)[C@H](CO)NC(=O)[C@@H](NC(=O)[C@](C)(Cc1ccccc1)NC(=O)[C@@H](NC(=O)CNC(=O)[C@H](CCC(=O)O)NC(=O)C(C)(C)NC(=O)[C@@H](N)Cc1ccc(O)cc1)[C@@H](C)O)[C@@H](C)CC)C(=O)N[C@@](C)(CC(C)C)C(=O)N[C@@H](CC(C)C)C(=O)N[C@@H](CC(=O)O)C(=O)N[C@@H](CCCCN)C(=O)N[C@@H](CCCCNC(=O)COCCOCCNC(=O)COCCOCCNC(=O)CC[C@H](NC(=O)CCCCCCCCCCCCCCCCCCC(=O)O)C(=O)O)C(=O)N[C@@H](Cc1c[nH]cn1)C(=O)N[C@@H](CCC(N)=O)C(=O)NC(C)(C)C(=O)N[C@@H](CCC(=O)O)C(=O)N[C@@H](Cc1ccccc1)C(=O)N[C@H](C(=O)N[C@@H](CCC(=O)O)C(=O)N[C@@H](Cc1ccncc1)C(=O)N[C@@H](CC(C)C)C(=O)N[C@@H](CC(C)C)C(=O)N[C@@H](C)C(=O)N[C@@H](C)C(=O)NCC(=O)N1CCC[C@H]1C(=O)N[C@@H](CO)C(=O)N[C@@H](CO)C(=O)NCC(=O)N[C@@H](C)C(=O)N1CCC[C@H]1C(=O)N1CCC[C@H]1C(=O)N1CCC[C@H]1C(=O)N[C@@H](CO)C(N)=O)C(C)C` [Example 62] (H-Y[Aib]EGT[αMeF]ISDYSI[αMeL]LDKK([AEEA-AEEA-γGlu-C20 diacid])HQ[Aib]EFVE[4Pal]LLAAGPSSGAPPPS-NH2) here?
Its Ki is 0.0313 µM.
